For test [1], the target named is Mer (phospho-Mer, MERTK-transfected 293A cells) (Homo sapiens (Human), UniProt Q12866). Description: Mer autophosphorylation ELISA in transient transfected 293A cells (Example H). As to conditions: cellular activity; Mer autophosphorylation ELISA in transient transfected 293A cells. The class given is cell-based. A digest of the protocol: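 IC50 from phospho-Mer ELISA of MERTK-transfected 293A cell lysates after 1 h treatment with serially diluted compound in serum-free medium.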
Background: ELISA stands for enzyme-linked immunosorbent assay.

The target in test [2] is Human KDR (residues 790-1356) (Homo sapiens (Human), UniProt P35968). Description: Human KDR kinase assay, HTRF KinEase (Example B-2). Type of test: biochemical. As to conditions: protocol of Example B-2 (other compounds). A digest of the protocol: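 Ten compound concentrations (3% DMSO final) were pre-plated, then KDR (790-1356) with biotinylated peptide in Mg/Mn/DTT buffer was added; ATP at Km (4.0 μM) started a 40 min room-temperature reaction. Detection used Eu-TK antibody and SA-XL665 in EDTA buffer; activity normalized to DMSO and reference inhibitor, IC50 by logistic fit.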
(TR-FRET usually uses a lanthanide donor and a delayed reading to cut background.)

The target in test [3] is Human MER (residues 528-999) (Homo sapiens (Human), UniProt Q12866). Nature of the test: Human Mer kinase assay, HTRF KinEase (Example C-2). As to conditions: protocol of Example C-2 (other compounds). The class given is biochemical. A digest of the protocol:
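Recombinant MER 528-999 (1 ng/well) in buffer with 5 mM MgCl2 and 1 mM DTT was reacted with biotinylated peptide and ATP at Km (40 μM) for 60 min at room temperature. EDTA stop with SA-XL665 and Eu3+ TK antibody, then 665/620 nm HTRF read; IC50 from 4-parameter fit.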

For test [4], the target named is KDR (phospho-KDR, VEGF165-stimulated HUVEC cells) (Homo sapiens (Human), UniProt P35968). Description: KDR autophosphorylation ELISA in HUVEC cells (Example G). The class given is cell-based. As to conditions: cellular activity; KDR autophosphorylation ELISA in HUVEC cells. An outline of the steps:
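Read-out is phospho-KDR measured by ELISA in lysates of VEGF165-stimulated (100 ng/mL, 5 min) HUVEC that were serum-starved 24 h and then pre-exposed 1 h to compound across 8 doses in 0.3% DMSO. Unstimulated lysates defined 0% and stimulated vehicle lysates 100% activity; IC50 values come from 4-parameter logistic regression.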

One may read the IC50 as the point on the concentration scale where inhibition reaches its midpoint. The low end stands for greater potency, the high end for weaker potency.

The structures appear in SMILES notation. A value given as a limit tells only on which side of the number the result lay.

Sequence of Human KDR (residues 790-1356) (P35968 790-1356): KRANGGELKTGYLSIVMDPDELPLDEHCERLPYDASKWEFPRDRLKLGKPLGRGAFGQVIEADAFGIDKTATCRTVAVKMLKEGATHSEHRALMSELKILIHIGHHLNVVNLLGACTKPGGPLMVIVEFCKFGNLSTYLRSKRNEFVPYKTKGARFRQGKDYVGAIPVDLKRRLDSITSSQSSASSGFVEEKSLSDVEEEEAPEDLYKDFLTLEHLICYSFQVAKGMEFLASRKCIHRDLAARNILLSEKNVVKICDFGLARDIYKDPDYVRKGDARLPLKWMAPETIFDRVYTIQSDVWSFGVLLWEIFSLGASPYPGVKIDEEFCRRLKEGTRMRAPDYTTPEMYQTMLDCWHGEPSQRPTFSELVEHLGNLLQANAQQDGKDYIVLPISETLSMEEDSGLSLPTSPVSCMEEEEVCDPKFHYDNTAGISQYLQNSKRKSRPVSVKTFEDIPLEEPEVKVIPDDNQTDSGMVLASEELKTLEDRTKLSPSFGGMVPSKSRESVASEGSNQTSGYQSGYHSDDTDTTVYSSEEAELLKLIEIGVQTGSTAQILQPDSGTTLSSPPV
Sequence of Human MER (residues 528-999) (Q12866 528-999): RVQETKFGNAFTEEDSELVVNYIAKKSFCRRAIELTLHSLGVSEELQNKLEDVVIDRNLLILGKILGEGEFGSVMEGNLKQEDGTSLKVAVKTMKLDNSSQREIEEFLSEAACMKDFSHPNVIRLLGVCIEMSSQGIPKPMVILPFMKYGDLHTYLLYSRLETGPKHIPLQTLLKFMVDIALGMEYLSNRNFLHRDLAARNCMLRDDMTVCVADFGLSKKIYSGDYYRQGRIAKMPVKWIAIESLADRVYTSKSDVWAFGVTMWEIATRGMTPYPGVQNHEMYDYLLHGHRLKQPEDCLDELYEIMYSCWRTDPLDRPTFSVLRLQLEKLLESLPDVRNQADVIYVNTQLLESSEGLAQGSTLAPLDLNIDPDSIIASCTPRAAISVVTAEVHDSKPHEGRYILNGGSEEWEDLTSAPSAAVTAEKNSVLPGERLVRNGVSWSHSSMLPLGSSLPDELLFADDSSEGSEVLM
Sequence of KDR (phospho-KDR, VEGF165-stimulated HUVEC cells) (P35968 20-1356): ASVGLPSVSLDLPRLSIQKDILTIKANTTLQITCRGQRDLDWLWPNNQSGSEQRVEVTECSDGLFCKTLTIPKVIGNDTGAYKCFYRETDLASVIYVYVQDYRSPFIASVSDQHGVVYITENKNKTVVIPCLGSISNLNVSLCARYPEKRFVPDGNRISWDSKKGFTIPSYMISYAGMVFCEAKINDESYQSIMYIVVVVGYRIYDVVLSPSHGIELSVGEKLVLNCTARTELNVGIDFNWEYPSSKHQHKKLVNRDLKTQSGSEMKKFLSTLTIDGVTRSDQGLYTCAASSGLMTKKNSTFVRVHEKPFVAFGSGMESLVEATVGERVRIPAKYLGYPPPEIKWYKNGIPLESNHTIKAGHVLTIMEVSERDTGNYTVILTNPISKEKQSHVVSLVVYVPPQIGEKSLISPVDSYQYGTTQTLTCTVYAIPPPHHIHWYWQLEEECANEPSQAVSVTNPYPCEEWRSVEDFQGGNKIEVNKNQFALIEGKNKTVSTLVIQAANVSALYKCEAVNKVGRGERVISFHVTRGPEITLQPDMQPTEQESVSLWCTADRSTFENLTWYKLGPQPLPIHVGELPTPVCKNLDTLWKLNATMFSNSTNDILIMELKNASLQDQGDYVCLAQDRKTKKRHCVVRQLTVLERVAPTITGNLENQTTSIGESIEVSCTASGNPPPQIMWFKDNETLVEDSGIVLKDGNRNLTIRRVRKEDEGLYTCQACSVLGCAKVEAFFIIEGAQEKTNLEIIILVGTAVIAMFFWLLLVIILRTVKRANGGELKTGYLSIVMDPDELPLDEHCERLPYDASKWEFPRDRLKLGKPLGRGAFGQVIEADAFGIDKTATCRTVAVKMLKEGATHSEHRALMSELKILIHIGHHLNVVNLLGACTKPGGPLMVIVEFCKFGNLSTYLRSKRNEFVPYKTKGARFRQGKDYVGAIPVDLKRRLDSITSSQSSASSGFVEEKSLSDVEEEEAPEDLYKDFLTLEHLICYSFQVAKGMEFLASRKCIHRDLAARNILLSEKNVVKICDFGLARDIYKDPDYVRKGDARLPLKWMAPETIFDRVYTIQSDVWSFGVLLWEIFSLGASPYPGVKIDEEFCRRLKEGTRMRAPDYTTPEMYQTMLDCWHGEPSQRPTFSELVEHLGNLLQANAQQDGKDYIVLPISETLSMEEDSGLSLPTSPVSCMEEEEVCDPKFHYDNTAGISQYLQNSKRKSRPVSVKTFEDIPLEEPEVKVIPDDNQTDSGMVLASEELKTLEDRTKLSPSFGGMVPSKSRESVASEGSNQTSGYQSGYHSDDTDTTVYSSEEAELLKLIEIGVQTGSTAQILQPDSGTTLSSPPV
Sequence of Mer (phospho-Mer, MERTK-transfected 293A cells) (Q12866 21-999): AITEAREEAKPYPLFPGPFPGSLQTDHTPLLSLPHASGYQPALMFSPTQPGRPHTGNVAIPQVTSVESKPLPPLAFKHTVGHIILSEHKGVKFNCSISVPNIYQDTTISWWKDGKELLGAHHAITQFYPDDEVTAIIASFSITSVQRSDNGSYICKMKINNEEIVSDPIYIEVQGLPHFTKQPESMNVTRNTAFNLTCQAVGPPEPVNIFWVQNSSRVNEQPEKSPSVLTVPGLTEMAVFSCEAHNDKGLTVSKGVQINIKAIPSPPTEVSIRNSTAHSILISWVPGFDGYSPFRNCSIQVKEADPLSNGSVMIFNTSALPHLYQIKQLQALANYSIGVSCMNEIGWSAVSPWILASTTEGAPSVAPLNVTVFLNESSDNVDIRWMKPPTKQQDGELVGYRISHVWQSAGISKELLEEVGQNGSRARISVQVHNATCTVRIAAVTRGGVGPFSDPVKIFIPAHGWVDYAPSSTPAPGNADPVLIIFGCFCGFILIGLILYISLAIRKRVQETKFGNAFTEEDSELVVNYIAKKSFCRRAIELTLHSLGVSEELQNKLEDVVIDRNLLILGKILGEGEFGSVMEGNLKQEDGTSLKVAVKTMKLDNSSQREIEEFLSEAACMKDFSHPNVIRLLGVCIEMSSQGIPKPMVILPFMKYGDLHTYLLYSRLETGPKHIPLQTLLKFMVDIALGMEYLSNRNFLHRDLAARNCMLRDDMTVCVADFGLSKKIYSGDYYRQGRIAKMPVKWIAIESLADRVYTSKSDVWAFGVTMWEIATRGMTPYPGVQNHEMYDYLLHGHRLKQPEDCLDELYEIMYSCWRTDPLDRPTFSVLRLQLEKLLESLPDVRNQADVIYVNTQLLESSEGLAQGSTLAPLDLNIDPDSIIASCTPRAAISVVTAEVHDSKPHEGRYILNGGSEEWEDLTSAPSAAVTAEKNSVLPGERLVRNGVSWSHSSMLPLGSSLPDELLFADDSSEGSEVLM

As for `Cc1nc(C)c(-c2ccc(F)cc2)c(O)c1C(=O)Nc1ccc(Oc2ccnc3ccc(OCCN4CCOCC4)nc23)c(F)c1` [Compound 355, N-[3-fluoro-4-[[6-(2-morpholin-4-ylethoxy)-1,5-naphthyridin-4-yl)oxy]phenyl]-5-(4-fluorophenyl)-4-hydroxy-2,6-dimethylpyridine-3-carboxamide], the IC50 in test [1], in test [2], in test [3] and in test [4] was under 100 nM each time.
Take `COc1ccc2nccc(Oc3ccc(NC(=O)c4cn(C)c(C)c(-c5ccc(F)cc5)c4=O)cc3)c2n1` [Compound 356, 5-(4-fluorophenyl)-N-[4-[(6-methoxy-1,5-naphthyridin-4-yl)oxy]phenyl]-1,6-dimethyl-4-oxopyridine-3-carboxamide]: the IC50 in test [1] is under 100 nM; in test [2] it was over 300 nM; in test [3] it was under 100 nM; in test [4], over 300 nM.
As to `COc1cc2nccc(Oc3ccc(NC(=O)c4nn(C(C)C)c(C)c(-c5ccc(F)cc5)c4=O)cc3F)c2nc1OC` [Compound 364, N-[4-[(6,7-dimethoxy-1,5-naphthyridin-4-yl)oxy]-3-fluorophenyl]-5-(4-fluorophenyl)-6-methyl-4-oxo-1-propan-2-ylpyridazine-3-carboxamide], the IC50 in test [1], in test [2], in test [3] and in test [4] was under 100 nM throughout.
`C=C(C)c1cc(C(=O)Nc2ccc(Oc3ccnc4cc(OC)c(OC)nc34)c(F)c2)c(=O)n(-c2ccc(F)cc2)c1C` [Compound 367, N-[4-[(6,7-dimethoxy-1,5-naphthyridin-4-yl)oxy]-3-fluorophenyl]-1-(4-fluorophenyl)-6-methyl-2-oxo-5-prop-1-en-2-ylpyridine-3-carboxamide]: the IC50 in test [1] was under 100 nM; in test [2] it was over 300 nM; in test [3] it was under 100 nM; in test [4] it was 100 to 300 nM.
As to `COc1cc2nccc(Oc3ccc(NC(=O)c4cc(C(C)C)c(C)n(-c5ccc(F)cc5)c4=O)cc3F)c2nc1OC` [Compound 368, N-[4-[(6,7-dimethoxy-1,5-naphthyridin-4-yl)oxy]-3-fluorophenyl]-1-(4-fluorophenyl)-6-methyl-2-oxo-5-propan-2-ylpyridine-3-carboxamide], the half-maximal inhibitory concentration (IC50) was under 100 nM in test [1], 100 to 300 nM in test [2], under 100 nM in test [3] and under 100 nM in test [4].
As for `CCOc1c(C(=O)Nc2ccc(Oc3ccnc4cc(OC)c(OC)nc34)c(F)c2)c(=O)c(-c2ccc(F)cc2)c(C)n1C` [Compound 369, N-[4-[(6,7-dimethoxy-1,5-naphthyridin-4-yl)oxy]-3-fluorophenyl]-2-ethoxy-5-(4-fluorophenyl)-1,6-dimethyl-4-oxopyridine-3-carboxamide], the IC50 in test [1] was under 100 nM; in test [2], 100 to 300 nM; in test [3], under 100 nM; in test [4], under 100 nM.
As to `COc1cc2nccc(Oc3ccc(NC(=O)c4cc(C)c(C)n(-c5ccc(F)cc5)c4=O)cc3F)c2nc1OC` [Compound 370, N-[4-[(6,7-dimethoxy-1,5-naphthyridin-4-yl)oxy]-3-fluorophenyl]-1-(4-fluorophenyl)-5,6-dimethyl-2-oxopyridine-3-carboxamide], the IC50 in test [1], in test [2], in test [3] and in test [4] was under 100 nM throughout.
On to `Cc1ncc(C(=O)Nc2ccc(Oc3ccnc4cc(-c5cnn(C(F)F)c5)ccc34)cc2)c(O)c1-c1ccc(F)cc1` [Compound 377, N-[4-[7-[1-(difluoromethyl)pyrazol-4-yl]quinolin-4-yl]oxyphenyl]-5-(4-fluorophenyl)-4-hydroxy-6-methylpyridine-3-carboxamide], for which the IC50 in test [1], in test [2], in test [3] and in test [4] was under 100 nM throughout.
On to `COc1ccc2nccc(Oc3ccc(NC(=O)c4ncc(C)n(-c5ccc(F)cc5)c4=O)cc3)c2n1` [Compound 378, 4-(4-fluorophenyl)-N-[4-[(6-methoxy-1,5-naphthyridin-4-yl)oxy]phenyl]-5-methyl-3-oxopyrazine-2-carboxamide], for which the IC50 is under 100 nM in test [1], over 300 nM in test [2], under 100 nM in test [3] and over 300 nM in test [4].
As to `COc1cc2nccc(Oc3ccc(NC(=O)c4nccn(-c5ccc(F)cc5)c4=O)cc3F)c2nc1OC` [Compound 379, N-[4-[(6,7-dimethoxy-1,5-naphthyridin-4-yl)oxy]-3-fluorophenyl]-4-(4-fluorophenyl)-3-oxopyrazine-2-carboxamide], the IC50 in test [1], in test [2], in test [3] and in test [4] was under 100 nM throughout.
Take `COc1ccc2nccc(Oc3ccc(NC(=O)c4nccn(-c5ccc(F)cc5)c4=O)cc3F)c2n1` [Compound 380, N-[3-fluoro-4-[(6-methoxy-1,5-naphthyridin-4-yl)oxy]phenyl]-4-(4-fluorophenyl)-3-oxopyrazine-2-carboxamide]: the IC50 in test [1] was under 100 nM; in test [2], over 300 nM; in test [3] it was under 100 nM; in test [4], over 300 nM.
Consider `COc1cnc2c(Oc3ccc(NC(=O)c4nccn(-c5ccc(F)cc5)c4=O)cc3F)ccnc2c1` [Compound 381, N-[3-fluoro-4-[(7-methoxy-1,5-naphthyridin-4-yl)oxy]phenyl]-4-(4-fluorophenyl)-3-oxopyrazine-2-carboxamide], for which the IC50 was under 100 nM in test [1], over 300 nM in test [2], under 100 nM in test [3] and over 300 nM in test [4].
As for `COc1cnc2c(Oc3ccc(NC(=O)c4nccn(-c5ccc(F)cc5)c4=O)cc3)ccnc2c1` [Compound 382, 4-(4-fluorophenyl)-N-[4-[(7-methoxy-1,5-naphthyridin-4-yl)oxy]phenyl]-3-oxopyrazine-2-carboxamide], the IC50 was under 100 nM in test [1], over 300 nM in test [2], under 100 nM in test [3] and over 300 nM in test [4].
Regarding `COc1ccc2nccc(Oc3ccc(NC(=O)c4nccn(-c5ccc(F)cc5)c4=O)cc3)c2n1` [Compound 383, 4-(4-fluorophenyl)-N-[4-[(6-methoxy-1,5-naphthyridin-4-yl)oxy]phenyl]-3-oxopyrazine-2-carboxamide], the IC50 in test [1] is under 100 nM; in test [2], over 300 nM; in test [3], under 100 nM; in test [4] it was over 300 nM.
Consider `COc1cc2nccc(Oc3ccc(NC(=O)c4nccn(-c5ccc(F)cc5)c4=O)cc3)c2nc1OC` [Compound 384, N-[4-[(6,7-dimethoxy-1,5-naphthyridin-4-yl)oxy]phenyl]-4-(4-fluorophenyl)-3-oxopyrazine-2-carboxamide], for which the IC50 in test [1] is under 100 nM; in test [2], 100 to 300 nM; in test [3], under 100 nM; in test [4], under 100 nM.
On to `COc1cc2nccc(Oc3ccc(NC(=O)c4ccnn(-c5ccc(F)cc5)c4=O)cc3F)c2nc1OC` [Compound 386, N-[4-[(6,7-dimethoxy-1,5-naphthyridin-4-yl)oxy]-3-fluorophenyl]-2-(4-fluorophenyl)-3-oxopyridazine-4-carboxamide], for which the IC50 in test [1], in test [2], in test [3] and in test [4] was under 100 nM each time.
On to `COc1cc2nccc(Oc3ccc(NC(=O)c4cn(C)c(C)c(-c5ccc(F)cc5)c4=O)cc3Cl)c2nc1OC` [Compound 388, N-[3-chloro-4-[(6,7-dimethoxy-1,5-naphthyridin-4-yl)oxy]phenyl]-5-(4-fluorophenyl)-1,6-dimethyl-4-oxopyridine-3-carboxamide], for which the IC50 in test [1], in test [2], in test [3] and in test [4] was under 100 nM throughout.
On to `COc1cc2nccc(Oc3ccc(NC(=O)c4cn(C)c(C)c(-c5ccc(F)cc5)c4=O)c(F)c3)c2nc1OC` [Compound 389, N-[4-[(6,7-dimethoxy-1,5-naphthyridin-4-yl)oxy]-2-fluorophenyl]-5-(4-fluorophenyl)-1,6-dimethyl-4-oxopyridine-3-carboxamide], for which the IC50 is under 100 nM in test [1], over 300 nM in test [2], under 100 nM in test [3] and over 300 nM in test [4].
As for `COc1cc2nccc(Oc3ccc(NC(=O)c4cn(C)c(C)c(-c5ccc(F)cc5)c4=O)c(F)c3F)c2nc1OC` [Compound 390, N-[4-[(6,7-dimethoxy-1,5-naphthyridin-4-yl)oxy]-2,3-difluorophenyl]-5-(4-fluorophenyl)-1,6-dimethyl-4-oxopyridine-3-carboxamide], the IC50 in test [1] is under 100 nM; in test [2], over 300 nM; in test [3], under 100 nM; in test [4], under 100 nM.

The values above are taken from patent US12371428B2 (Exelixis, Inc., priority 2019, dated 2025).
